Several values for one entry are separate records, joined by “and”; a condition that tells them apart may be missing. Identical values can stand only once. Like-named read-outs stand apart in the source and are kept apart here. Where no end group is shown, it is not given here.
How the values were obtained:
[1] = assay not specified, cited from earlier work
Excerpt: Alternatively, the guanidine of Arg, imidazolyl in His, the free hydroxyl group of Ser, the cyclic amino group of Pro, and the phenolic hydroxyl group of Tyr can quickly quench free radicals, showing excellent antioxidant ability. Moreover, the sulfhydryl group in Cys or Met can inhibit free radicals’ chain reaction by chelating metal ions, which are catalysts for oxidation reactions. Therefore, the residues, including Tyr, Pro, Val, and Met, were responsible for the antioxidant activity of […]. Furthermore, the repeated amino acid sequences “GGG” can enhance the antioxidant ...

ABTS+ quenching ability = format: physicochemical; conditions: at 100 μg/mL; absorbance at 734 nm; mean ± standard error
Experimental: The ABTS^+ quenching ability was determined following the same procedures described by Vásquez et al.. The same system without the sample was the control, and glutathione (0.1 mg/mL) was the comparison. The percentage of reduction in absorbance at 734 nm was defined as the ABTS^+ scavenging ability of samples.

[2] = Hydroxyl radical scavenging activity (β-deoxyribose oxidation method); format: physicochemical; conditions: at 100 μg/mL
Experimental: (§1) As described by Wang et al. and Vásquez et al., the hydroxyl (·OH) and superoxide ( O2−· ) radicals’ scavenging activity was measured using the β-deoxyribose oxidation and pyrogallol auto-oxidation methods, respectively. The comparison was conducted when the samples were replaced by glutathione (0.1 mg/mL).

[3] = Superoxide radical scavenging activity (pyrogallol auto-oxidation method); format: physicochemical; conditions: at 100 μg/mL
Experimental: as §1

[4] = Reducing power (potassium ferricyanide method); format: physicochemical; conditions: at 100 μg/mL; absorbance at 700 nm
Excerpt: The potassium ferricyanide method was employed to determine the reducing power of the SAGH peptides at the same conditions reported by Wang et al., where the absorbance at 700 nm represented the reducing power.

[5] = cited from earlier work
Excerpt: The ACE inhibition and antioxidant activities of […] were stable during gastrointestinal digestion (Figure 3A and Table 2), which is mainly ascribed to the Pro, Val, and Met residues. […] Therefore, the Pro and Val residues of […] were mainly responsible for its gastrointestinal stability. Peptides rich in Pro and br ...

[6] = Gastrointestinal stability of peptide–ferrous chelate (ferrous solubility in simulated digestion); format: in vitro ADME
Experimental: Next, the intestinal digestive fluid was added, and digestion was continued at pH 6.8 for 2 h in the EDZF-C002 thermostatic vibrator ([…], 175 rpm).

ACE (from rabbit lungs) [7] = biological target: T1, ACE (from rabbit lungs) (Oryctolagus cuniculus, UniProt P12822); set-up: method as in 3 sources, ref 29 = [29]; doi:10.1111/j.1365-2621.2001.tb04614.x; 29. Nielsen P.M. Petersen D. Dambmann C. Improved method for determining food protein degree of hydrolysis J. Food Sci. 2001 66 642 646 10.1111/j.1365-2621.2001.tb04614.x ||| ref 43 = [43]; PMID 38470110; doi:10.1021/acs.jafc.4c00829; 43. Martineau-Côté D. Achouri A. Karboune S. L’Hocine L. Antioxidant and Angiotensin-Converting Enzyme Inhibitory Activity of Faba Bean-Derived Peptides After In Vitro Gastrointestinal Digestion: Insi ||| ref 10 = [10]; PMID 36493485; doi:10.1016/j.foodchem.2022.135082; 10. Fadimu G.J. Gan C.Y. Olalere Q.A. Farahnaky A. Gill H. Truong T. Novel antihypertensive peptides from lupin protein hydrolysate: An in-silico identification and molecular docking studies Food Chem; conditions: read-out: ACE inhibition IC50 (literature), cited from earlier work
T1 construct: ACE (0.1 U, from rabbit lungs, purity > 99.7%, CAS: 9015-82-1) was obtained from Sigma-Aldrich; purchased Sigma-Aldrich (St. Louis, MO, USA); host or cells: rabbit lung tissue
T1 sequence (P12822 34-1310): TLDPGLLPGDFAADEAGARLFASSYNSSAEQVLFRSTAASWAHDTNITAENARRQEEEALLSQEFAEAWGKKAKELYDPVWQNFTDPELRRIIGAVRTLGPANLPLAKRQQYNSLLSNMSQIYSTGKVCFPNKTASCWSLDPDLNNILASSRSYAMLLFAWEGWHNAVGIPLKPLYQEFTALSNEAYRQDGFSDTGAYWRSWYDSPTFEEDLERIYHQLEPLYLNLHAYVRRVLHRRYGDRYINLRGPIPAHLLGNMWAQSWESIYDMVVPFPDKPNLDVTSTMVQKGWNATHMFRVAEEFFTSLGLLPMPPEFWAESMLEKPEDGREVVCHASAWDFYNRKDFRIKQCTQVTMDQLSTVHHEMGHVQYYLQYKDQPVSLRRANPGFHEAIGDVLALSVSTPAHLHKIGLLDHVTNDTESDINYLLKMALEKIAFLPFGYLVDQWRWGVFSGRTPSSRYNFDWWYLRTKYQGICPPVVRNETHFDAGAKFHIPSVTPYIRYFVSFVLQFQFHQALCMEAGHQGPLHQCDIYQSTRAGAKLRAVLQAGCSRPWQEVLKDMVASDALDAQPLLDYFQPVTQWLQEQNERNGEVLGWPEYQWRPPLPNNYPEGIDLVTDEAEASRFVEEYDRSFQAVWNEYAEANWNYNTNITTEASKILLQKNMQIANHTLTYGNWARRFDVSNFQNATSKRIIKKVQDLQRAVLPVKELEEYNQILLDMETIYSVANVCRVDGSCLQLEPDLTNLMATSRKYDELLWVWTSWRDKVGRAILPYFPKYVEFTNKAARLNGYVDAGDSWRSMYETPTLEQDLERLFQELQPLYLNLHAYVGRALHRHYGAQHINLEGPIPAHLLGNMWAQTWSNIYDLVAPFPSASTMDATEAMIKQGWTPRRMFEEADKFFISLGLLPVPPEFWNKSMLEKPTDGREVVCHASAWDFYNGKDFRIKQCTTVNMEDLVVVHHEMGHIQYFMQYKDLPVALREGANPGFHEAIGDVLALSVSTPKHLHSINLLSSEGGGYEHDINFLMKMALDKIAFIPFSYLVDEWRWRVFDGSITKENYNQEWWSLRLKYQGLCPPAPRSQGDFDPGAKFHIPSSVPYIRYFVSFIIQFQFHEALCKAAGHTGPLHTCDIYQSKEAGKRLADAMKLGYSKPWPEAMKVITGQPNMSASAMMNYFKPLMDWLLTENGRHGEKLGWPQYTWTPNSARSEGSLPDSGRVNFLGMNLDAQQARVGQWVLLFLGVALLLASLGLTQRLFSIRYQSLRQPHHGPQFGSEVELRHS

[8] = Ferrous ion binding capacity (o-phenanthroline method); format: physicochemical; conditions: decrease in ferrous concentration per sample concentration, mean ± standard error, at least three tests
Experimental: The ferrous ion binding capacity was determined using the o-phenanthroline method following the same procedures described by Xu et al.. By plugging the absorbance value into the equation of A = 0.3719C + 0.0002 [36], the ferrous ion concentration (C) can be calculated. The ferrous ion binding capacity (mg/g) was defined as the decrease in ferrous concentration of the reaction solution per sample concentration.

ACE (from rabbit lungs) [9] = biological target: T1, ACE (from rabbit lungs); test: ACE inhibitory ability (hippuric acid method); format: biochemical; conditions: N = 3
Excerpt: The hippuric acid method was used to measure the samples’ inhibitory ability towards ACE, following the same procedures as Zheng et al.. The absorbance at 228 nm was the hippuric acid content and represented ACE activity; therefore, the inhibitory ability of samples towards ACE was defined as the percentage of reduction in the absorption at 228 nm between the control and sample groups. Moreover, the ACE inhibitory kinetic of SAGH peptides was investigated by employing a Lineweaver–Burk plot with N-hippuryl-L-histidyl-L-leucine (HHL, 0.13–1.32 mmol/L) as the substrate.
(§2) As described by Wu et al., the simulative gastric digestive fluid consisted of sodium chloride (0.18 mol/L), ultrapure water (180 mL), and 0.40 mg/mL of pepsin. The simulation intestinal digestive juice was composed of NaHCO3, ([…]), bile salt (3 g/100 mL), pancreatin (0.35 mg/mL), and 180 mL of ultrapure water. The antihypertensive and antioxidant SAGH peptides (5 mg/mL, 60 mL) were first hydrolyzed using 150 mL of simulative gastric fluid at 37 °C and 140 rpm for 90 min. The mixture was adjusted to pH 7.0, and 180 mL of the simulative intestinal hydrolysis fluid was added and stirred at 37 °C for 2 h. After boiling for 6 min, the mixture was cooled with running water to room temperature. The ACE inhibition capacity and antioxidant ability of the treated SAGH peptides were detected and compared to those of the […] SAGH peptides.

[10] = Gastrointestinal stability of SAGH peptide (simulated gastric and intestinal digestion); format: in vitro ADME; conditions: peptide 5 mg/mL; simulated gastric fluid (pepsin 0.40 mg/mL) 37 °C, 140 rpm, 90 min, then pH 7.0 intestinal fluid (pancreatin 0.35 mg/mL, bile salt 3 g/100 mL) 37 °C 2 h; read-out activity
Experimental: as §2

LPSYVN [literature antioxidant peptide from apricot]
antioxidant activity (literature) ([1]; peptides from apricot): excellent antioxidant activity

N[C@@H](CCC(=O)N[C@@H](CS)C(=O)NCC(=O)O)C(=O)O [Glutathione, glutathione, reference compound]
ABTS+ Scavenging Activity (%) Before Gastrointestinal Digestion (ABTS+ quenching ability): 79.25 ± 1.67 b % | ·OH Scavenging Activity (%) Before Gastrointestinal Digestion [2]: 95.56 ± 1.38 a,b % | Superoxide Radical Scavenging Ability (%) Before Gastrointestinal Digestion [3]: 90.52 ± 4.97 a % | Reducing Power Before Gastrointestinal Digestion [4]: 0.675 ± 0.019 a

VSRRFIYYL [literature antioxidant peptide from broad bean]
antioxidant activity (literature) ([1]; peptides from broad bean): excellent antioxidant activity

PIIAKMY [literature peptide from millet glutelin-2]
gastrointestinal stability (literature) ([5]; peptide from millet glutelin-2): good gastrointestinal stability

YLSF [literature antioxidant peptide from apricot]
antioxidant activity (literature) ([1]; peptides from apricot): excellent antioxidant activity

[Cl][Fe][Cl] [ferrous chloride, reference compound]
ferrous solubility during gastric digestion ([6]; 0–90 min, simulated gastric fluid pH 1.9, 37 °C, 175 rpm, soluble ferrous by o-phenanthroline every 30 min, N = 3): relatively stable | ferrous solubility during intestinal digestion ([6]; 91–240 min, intestinal digestive fluid pH 6.8, soluble ferrous by o-phenanthroline, p < 0.05): apparently decreased

GCHHY
IC50 (ACE (from rabbit lungs) [7]; peptide from millet bran glutelin-2): 147 µM

SPAIPLP [literature antioxidant peptide from broad bean]
antioxidant activity (literature) ([1]; peptides from broad bean): excellent antioxidant activity

SGGEEAAAGP [oligopeptide identified in SAGH-D]
Ferrous chelating capacity [8]: 18.22 mg/g and 16.14 ± 0.43 g mg/g

PMYGGGMV
IC50 (ACE (from rabbit lungs) [9]; hippuric acid method, HHL substrate, absorbance at 228 nm, read-out: ACE inhibitory activity (IC50)): 121 µM | IC50 (ACE (from rabbit lungs) [9]; peptide 5 mg/mL, simulated gastric fluid (pepsin 0.40 mg/mL) 37 °C 90 min, then intestinal fluid (pancreatin 0.35 mg/mL, bile salt) pH 7.0, 37 °C 2 h, read-out: ACE inhibitory activity (IC50) after simulated gastrointestinal digestion): 130 µM | stability of ACE inhibition and antioxidant activities during gastrointestinal digestion [10]: stable

VIPTEPPHA [literature peptide from Faba beans]
IC50 (ACE (from rabbit lungs) [7]; peptide from Faba beans): 260 µM | gastrointestinal stability (literature) ([5]; peptide from Faba beans): good gastrointestinal stability

— PMC11901700, “A Sweet Almond Globulin Multifunctional Peptide: Identification, In Silico Screening, Restraint Mechanisms to Keap1 and ACE, and Antihypertensive and Ferrous Transport Efficiency” (Nutrients, 2025)
